For assay [1], the target named is T1, BACE1 (Homo sapiens (Human), UniProt P56817). The experiment in a line: In vitro enzymatic BACE1 FRET assay. The assay is classed as biochemical. The settings on record: read-out: BACE1 Enzyme IC50.
Target sequence in this assay (P56817 46-501): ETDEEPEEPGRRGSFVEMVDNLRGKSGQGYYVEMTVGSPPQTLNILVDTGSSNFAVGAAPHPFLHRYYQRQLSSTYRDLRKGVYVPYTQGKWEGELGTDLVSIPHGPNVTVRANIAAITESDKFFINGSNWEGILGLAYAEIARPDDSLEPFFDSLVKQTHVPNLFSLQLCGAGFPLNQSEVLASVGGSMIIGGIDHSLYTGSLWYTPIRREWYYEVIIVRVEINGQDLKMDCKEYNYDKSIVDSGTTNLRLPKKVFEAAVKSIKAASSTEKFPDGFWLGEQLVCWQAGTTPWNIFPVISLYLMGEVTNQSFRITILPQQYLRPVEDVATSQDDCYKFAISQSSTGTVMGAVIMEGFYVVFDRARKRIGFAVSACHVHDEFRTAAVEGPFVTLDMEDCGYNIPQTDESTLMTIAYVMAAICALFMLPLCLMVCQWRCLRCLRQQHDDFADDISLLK
Assay [2] concerns the target T1, BACE1. The assay is described as follows: In vitro BACE1 cell-based assay (Aβ40 in conditioned medium of cells stably expressing APP, HTRF). The settings on record: Aβ40 in conditioned media after 24 h incubation.
Target sequence in this assay (P56817 46-501, species assumed): as the sequence (P56817 46-501) above
The target of assay [3] is human recombinant BACE2 (Homo sapiens (Human), UniProt Q9Y5Z0). The assay is described as follows: In vitro enzymatic BACE2 FRET assay. As to conditions: read-out: BACE2 Enzyme IC50. The assay is classed as biochemical.
Sequence of human recombinant BACE2 (Q9Y5Z0 63-518): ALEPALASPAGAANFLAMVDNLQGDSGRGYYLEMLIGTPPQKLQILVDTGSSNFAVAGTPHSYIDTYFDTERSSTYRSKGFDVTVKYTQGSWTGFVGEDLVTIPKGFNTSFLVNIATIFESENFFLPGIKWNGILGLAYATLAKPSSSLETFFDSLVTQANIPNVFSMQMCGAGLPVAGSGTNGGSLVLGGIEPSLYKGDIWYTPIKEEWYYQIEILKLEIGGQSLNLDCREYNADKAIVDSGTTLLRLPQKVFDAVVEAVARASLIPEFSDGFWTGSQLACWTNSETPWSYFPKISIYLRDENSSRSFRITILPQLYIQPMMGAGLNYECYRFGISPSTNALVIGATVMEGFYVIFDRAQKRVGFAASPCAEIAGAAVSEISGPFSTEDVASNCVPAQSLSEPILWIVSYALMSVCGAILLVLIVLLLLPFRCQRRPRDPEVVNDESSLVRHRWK
The target of assay [4] is Cathepsin D (CatD) (Homo sapiens (Human), UniProt P07339). The assay is described as follows: In vitro enzymatic Cathepsin D (CatD) FRET assay. The assay is classed as biochemical. As to conditions: read-out: Cat D Enzyme IC50.
Sequence of Cathepsin D (CatD) (P07339 65-412, species assumed): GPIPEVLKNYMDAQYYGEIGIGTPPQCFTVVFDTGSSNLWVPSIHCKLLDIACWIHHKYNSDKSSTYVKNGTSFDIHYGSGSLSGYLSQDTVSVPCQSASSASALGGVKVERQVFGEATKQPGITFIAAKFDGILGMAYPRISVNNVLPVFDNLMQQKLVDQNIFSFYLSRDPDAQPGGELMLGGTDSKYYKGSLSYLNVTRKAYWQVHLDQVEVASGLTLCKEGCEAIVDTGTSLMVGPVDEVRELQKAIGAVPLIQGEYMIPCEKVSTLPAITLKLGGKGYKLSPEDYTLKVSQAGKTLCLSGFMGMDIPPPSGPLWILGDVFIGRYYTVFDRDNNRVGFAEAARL

Structures are written as SMILES. pIC50: −log10 of the molar value.

Regarding `CN1C(N)=N[C@](C)(c2cc(/C=C(\F)c3ccc4c(n3)OCCO4)ccc2F)CS1(=O)=O` [Example 255, (5R)-5-(5-((Z)-2-(2,3-dihydro[1,4]dioxino[2,3-b]pyridin-6-yl)-2-fluoroethenyl)-2-fluorophenyl)-2,5-dimethyl-5,6-dihydro-2H-1,2,4-thiadiazin-3-amine 1,1-dioxide], the pIC50 in assay [1] is 5.42; in assay [2] it was 5.52; in assay [3], 6.34; in assay [4], 3.91.

Regarding `CN1C(N)=N[C@](C)(c2cc(/C=C(\F)c3ccc(C#N)s3)ccc2F)CS1(=O)=O` [Example 256, 5-((Z)-2-(3-((5R)-3-amino-2,5-dimethyl-1,1-dioxido-5,6-dihydro-2H-1,2,4-thiadiazin-5-yl)-4-fluorophenyl)-1-fluoroethenyl)-2-thiophenecarbonitrile], the pIC50 in assay [1] was 7.46; in assay [2] it was 7.00; in assay [3], 7.85; in assay [4] it was 4.81.

`CN1C(N)=N[C@](C)(c2cc(/C=C(\F)c3cc4c(cn3)OCO4)ccc2F)CS1(=O)=O` [Example 257, (5R)-5-(5-((Z)-2-([1,3]dioxolo[4,5-c]pyridin-6-yl)-2-fluoroethenyl)-2-fluorophenyl)-2,5-dimethyl-5,6-dihydro-2H-1,2,4-thiadiazin-3-amine 1,1-dioxide]: the pIC50 in assay [1] is 6.68; in assay [2] it was 6.99; in assay [3], 6.63; in assay [4] it was 3.63.

As to `CN1C(N)=N[C@](C)(c2cc(/C=C(\F)c3ccc(OC(F)(F)F)cn3)ccc2F)CS1(=O)=O` [Example 258, (R,Z)-3-amino-5-(2-fluoro-5-(2-fluoro-2-(5-(trifluoromethoxy)pyridin-2-yl)vinyl)phenyl)-2,5-dimethyl-5,6-dihydro-2H-1,2,4-thiadiazine 1,1-dioxide], the negative-log IC50 (pIC50) in assay [1] was 8.22; in assay [2] it was 7.48; in assay [3], 7.40; in assay [4], 4.26.

As to `CN1C(N)=N[C@](C)(c2cc(/C=C(\F)c3cc4ccccc4cn3)ccc2F)CS1(=O)=O` [Example 259, (5R)-5-(2-fluoro-5-((Z)-2-fluoro-2-(3-isoquinolinyl)ethenyl)phenyl)-2,5-dimethyl-5,6-dihydro-2H-1,2,4-thiadiazin-3-amine 1,1-dioxide], the pIC50 in assay [1] was 6.57; in assay [2], 5.95; in assay [3], 7.39; in assay [4], 3.94.

`CN1C(N)=N[C@](C)(c2cc(/C=C(\F)c3cc4cc(Cl)ccc4cn3)ccc2F)CS1(=O)=O` [Example 260, (5R)-5-(5-((Z)-2-(6-chloro-3-isoquinolinyl)-2-fluoroethenyl)-2-fluorophenyl)-2,5-dimethyl-5,6-dihydro-2H-1,2,4-thiadiazin-3-amine 1,1-dioxide]: the negative-log IC50 (pIC50) in assay [1] was 6.26; in assay [2], 5.38; in assay [3] it was 6.95; in assay [4] it was 4.14.

For `CC1(C)C(N)=N[C@](C)(c2cc(/C=C(\F)c3ccc(F)cn3)ccc2F)CS1(=O)=O` [Example 262, (R,Z)-5-amino-3-(2-fluoro-5-(2-fluoro-2-(5-fluoropyridin-2-yl)vinyl)phenyl)-3,6,6-trimethyl-3,6-dihydro-2H-1,4-thiazine 1,1-dioxide], the pIC50 in assay [1] was 7.33; in assay [2], 6.74; in assay [3], 7.96; in assay [4], 3.97.

`COc1cnc(/C(F)=C/c2ccc(F)c([C@]3(C)CS(=O)(=O)C(C)(C)C(N)=N3)c2)cn1` [Example 263, (R,Z)-5-amino-3-(2-fluoro-5-(2-fluoro-2-(5-methoxypyrazin-2-yl)vinyl)phenyl)-3,6,6-trimethyl-3,6-dihydro-2H-1,4-thiazine 1,1-dioxide]: the pIC50 is 6.72 in assay [1], 6.88 in assay [2], 6.72 in assay [3] and 3.63 in assay [4].

Regarding `CC1(C)C(N)=N[C@](C)(c2cc(/C=C(\F)c3ncc(C(F)(F)F)cc3Cl)ccc2F)CS1(=O)=O` [Example 264, (R,Z)-5-amino-3-(5-(2-(3-chloro-5-(trifluoromethyl)pyridin-2-yl)-2-fluorovinyl)-2-fluorophenyl)-3,6,6-trimethyl-3,6-dihydro-2H-1,4-thiazine 1,1-dioxide], the pIC50 is 8.00 in assay [1], 7.12 in assay [2], 7.42 in assay [3] and 3.93 in assay [4].

On to `CC1(C)C(N)=N[C@](C)(c2cc(/C=C(\F)c3ccc(C(F)(F)F)cn3)ccc2F)CS1(=O)=O` [Example 265, (R,Z)-5-amino-3-(2-fluoro-5-(2-fluoro-2-(5-(trifluoromethyl)pyridin-2-yl)vinyl)phenyl)-3,6,6-trimethyl-3,6-dihydro-2H-1,4-thiazine 1,1-dioxide], for which the negative logarithm of the IC50 (pIC50) was 8.10 in assay [1], 8.00 in assay [2], 7.37 in assay [3] and 4.05 in assay [4].

Turning to `CN1C(N)=N[C@](C)(c2cc(/C=C(\F)c3cnc(C4CC4)cn3)ccc2F)CS1(=O)=O` [Example 266, (R,Z)-3-amino-5-(5-(2-(5-cyclopropylpyrazin-2-yl)-2-fluorovinyl)-2-fluorophenyl)-2,5-dimethyl-5,6-dihydro-2H-1,2,4-thiadiazine 1,1-dioxide], the pIC50 in assay [1] is 6.12; in assay [2] it was 6.19; in assay [3] it was 7.11; in assay [4], 4.16.

As for `CN1C(N)=N[C@](C)(c2cc(/C=C(\F)c3nc(C#N)cs3)ccc2F)CS1(=O)=O` [Example 267, 2-((Z)-2-(3-((5R)-3-amino-2,5-dimethyl-1,1-dioxido-5,6-dihydro-2H-1,2,4-thiadiazin-5-yl)-4-fluorophenyl)-1-fluoroethenyl)-1,3-thiazole-4-carbonitrile], the negative logarithm of the IC50 (pIC50) in assay [1] is 7.59; in assay [2], 7.42; in assay [3] it was 8.22; in assay [4] it was 4.24.

Turning to `CC1(C)C(N)=N[C@](C)(c2cc(/C=C(\F)c3ncc(C#N)cc3Cl)ccc2F)CS1(=O)=O` [Example 268, (R,Z)-6-(2-(3-(5-amino-3,6,6-trimethyl-1,1-dioxido-3,6-dihydro-2H-1,4-thiazin-3-yl)-4-fluorophenyl)-1-fluorovinyl)-5-chloronicotinonitrile], the pIC50 was 8.15 in assay [1], 7.46 in assay [2], 7.92 in assay [3] and 3.87 in assay [4].

`CN1C(N)=N[C@](C)(c2cc(/C=C(\F)c3ncc(C#N)cc3Cl)ccc2F)CS1(=O)=O` [Example 269, (R,Z)-6-(2-(3-(3-amino-2,5-dimethyl-1,1-dioxido-5,6-dihydro-2H-1,2,4-thiadiazin-5-yl)-4-fluorophenyl)-1-fluorovinyl)-5-chloronicotinonitrile]: the negative-log IC50 (pIC50) in assay [1] is 8.70; in assay [2], 8.40; in assay [3], 8.52; in assay [4], 3.92.

Turning to `CN1C(N)=N[C@](C)(c2cc(/C=C(\F)c3ccc(F)cn3)cc(F)c2F)CS1(=O)=O` [Example 270, (R,Z)-3-amino-5-(2,3-difluoro-5-(2-fluoro-2-(5-fluoropyridin-2-yl)vinyl)phenyl)-2,5-dimethyl-5,6-dihydro-2H-1,2,4-thiadiazine 1,1-dioxide], the pIC50 is 7.12 in assay [1], 6.86 in assay [2], 7.55 in assay [3] and 3.58 in assay [4].

Regarding `CN1C(N)=N[C@](C)(c2cc(/C=C(\F)c3ccc(C(F)(F)F)cn3)cc(F)c2F)CS1(=O)=O` [Example 273, (R,Z)-3-amino-5-(2,3-difluoro-5-(2-fluoro-2-(5-(trifluoromethyl)pyridin-2-yl)vinyl)phenyl)-2,5-dimethyl-5,6-dihydro-2H-1,2,4-thiadiazine 1,1-dioxide], the negative logarithm of the IC50 (pIC50) is 8.15 in assay [1], 7.89 in assay [2], 7.34 in assay [3] and 4.12 in assay [4].

Consider `Cc1cc(C#N)cnc1/C(F)=C/c1ccc(F)c([C@]2(C)CS(=O)(=O)C(C)(C)C(N)=N2)c1` [Example 274, (R,Z)-6-(2-(3-(5-amino-3,6,6-trimethyl-1,1-dioxido-3,6-dihydro-2H-1,4-thiazin-3-yl)-4-fluorophenyl)-1-fluorovinyl)-5-methylnicotinonitrile], for which the negative-log IC50 (pIC50) in assay [1] was 8.22; in assay [2], 7.29; in assay [3], 7.55; in assay [4] it was 3.91.

Turning to `Cc1cc(C#N)cnc1/C(F)=C/c1cc(F)c(F)c([C@]2(C)CS(=O)(=O)N(C)C(N)=N2)c1` [Example 275, (R,Z)-6-(2-(3-(3-amino-2,5-dimethyl-1,1-dioxido-5,6-dihydro-2H-1,2,4-thiadiazin-5-yl)-4,5-difluorophenyl)-1-fluorovinyl)-5-methylnicotinonitrile], the negative-log IC50 (pIC50) is 9.00 in assay [1], 7.85 in assay [2], 8.05 in assay [3] and 4.25 in assay [4].

For the compound `CN1C(N)=N[C@](C)(c2cc(/C=C(\F)c3ncc(C#N)cc3Cl)cc(F)c2F)CS1(=O)=O` [Example 276, (R,Z)-6-(2-(3-(3-amino-2,5-dimethyl-1,1-dioxido-5,6-dihydro-2H-1,2,4-thiadiazin-5-yl)-4,5-difluorophenyl)-1-fluorovinyl)-5-chloronicotinonitrile], the pIC50 in assay [1] is 8.70; in assay [2], 7.77; in assay [3], 8.22; in assay [4], 4.24.

`CC1(C)C(N)=N[C@](C)(c2cc(/C=C/c3ccc(Cl)cc3)ccc2F)CS1(=O)=O` [Example 279, (R,E)-5-amino-3-(5-(4-chlorostyryl)-2-fluorophenyl)-3,6,6-trimethyl-3,6-dihydro-2H-1,4-thiazine 1,1-dioxide]: the negative-log IC50 (pIC50) in assay [1] was 7.25; in assay [2], 6.35; in assay [3], 7.25; in assay [4], 4.41.

The record behind these values is US11021493B2, “1,4-thiazine dioxide and 1,2,4-thiadiazine dioxide derivatives as beta-secretase inhibitors and methods of use” (AMGEN INC., priority 2016, dated 2021).
